What all share (format): functional
Common to all, as to set-up: scale not given: the % may be the effect or the level left

For assay [1], the system named is Rattus norvegicus. Description: Antihyperglycemic activity against sucrose-challenged streptozotocin-induced fasted albino Sprague-Dawley rat assessed as reduction in blood glucose at 100 mg/kg, po administered 30 mins before sucrose challenge measured after 24 hrs post sucrose dose.
Assay [2] concerns Rattus norvegicus. Description: Antihyperglycemic activity against sucrose-challenged streptozotocin-induced fasted albino Sprague-Dawley rat assessed as reduction in blood glucose at 100 mg/kg, po administered 30 mins before sucrose challenge measured after 5 hrs post sucrose dose.
Assay [3] has as its system Rattus norvegicus. Kind of assay: Antihyperglycemic activity against fasted sucrose-loaded albino rat model assessed as reduction in blood glucose at 100 mg/kg, po administered 30 mins before sucrose challenge measured after 24 hrs post sucrose dose.
In assay [4] the test system is Rattus norvegicus. Description: Antihyperglycemic activity against fasted sucrose-loaded albino rat model assessed as reduction in blood glucose at 100 mg/kg, po administered 30 mins before sucrose challenge measured after 5 hrs post sucrose dose.

In the case of `COc1ccc(CC(=O)O[C@H]2CC[C@]3(C)[C@H]4CC=C5[C@@H]6[C@@H](C)[C@H](C)CC[C@]6(C)CC[C@@]5(C)[C@]4(C)CC[C@H]3C2(C)C)cc1`, the Activity in the assay with Rattus norvegicus [1] worked out at 15.6%; in the assay with Rattus norvegicus [2] it was 17.5%.

Take `CC(=O)O[C@H]1CC[C@]2(C)[C@H]3CC=C4[C@@H]5[C@@H](C)[C@H](C)CC[C@]5(C)CC[C@@]4(C)[C@]3(C)CC[C@H]2C1(C)C`: the Activity is 17% in the assay on Rattus norvegicus [1] and 18.4% with Rattus norvegicus [2].

For `C[C@H]1[C@H](C)CC[C@]2(C)CC[C@]3(C)C(=CC[C@@H]4[C@@]5(C)CC/C(=N\N(C(=S)Nc6ccccc6)c6ccc([N+](=O)[O-])cc6[N+](=O)[O-])C(C)(C)[C@@H]5CC[C@]43C)[C@H]12`, the Activity in the assay with Rattus norvegicus [3] is on record as 7.35%; in the assay on Rattus norvegicus [4] it was 1.2%.

`C[C@H]1[C@H](C)CC[C@]2(C)CC[C@]3(C)C(=CC[C@@H]4[C@@]5(C)CC[C@H](OC(=O)c6cccnc6)C(C)(C)[C@@H]5CC[C@]43C)[C@H]12`: the figures for the Activity in the assay with Rattus norvegicus [1] and with Rattus norvegicus [2] were 27.6% and 18.2%, respectively.

For `C[C@H]1[C@H](C)CC[C@]2(C)CC[C@]3(C)C(=CC[C@@H]4[C@@]5(C)CC[C@H](OC(=O)c6ccc7ccccc7n6)C(C)(C)[C@@H]5CC[C@]43C)[C@H]12`, the Activity with Rattus norvegicus [1] was found to be 17.8%; in the assay with Rattus norvegicus [2], 19.6%.

Turning to `C[C@H]1[C@H](C)CC[C@]2(C)CC[C@]3(C)C(=CC[C@@H]4[C@@]5(C)CC[C@H](OC(=O)CCC(=O)O[C@H]6CC[C@]7(C)[C@H]8CC=C9[C@@H]%10[C@@H](C)[C@H](C)CC[C@]%10(C)CC[C@@]9(C)[C@]8(C)CC[C@H]7C6(C)C)C(C)(C)[C@@H]5CC[C@]43C)[C@H]12`, the Activity came to 15.6% with Rattus norvegicus [1] and 24.3% in the assay on Rattus norvegicus [2].

Turning to `CN(C)C(=N)NC(=N)N` [METFORMIN], the results for the Activity in the assay with Rattus norvegicus [1] and in the assay on Rattus norvegicus [2] were 26.5% and 23.5%, respectively.

Regarding `C/C=C(\C)C(=O)O[C@H]1CC[C@]2(C)[C@H]3CC=C4[C@@H]5[C@@H](C)[C@H](C)CC[C@]5(C)CC[C@@]4(C)[C@]3(C)CC[C@H]2C1(C)C`, the Activity in the assay on Rattus norvegicus [1] was determined as 22.6%; in the assay with Rattus norvegicus [2] it was 12.7%.

On to `C[C@H]1[C@H](C)CC[C@]2(C)CC[C@]3(C)C(=CC[C@@H]4[C@@]5(C)CC[C@H](OC(=O)CCCC(=O)c6ccccc6)C(C)(C)[C@@H]5CC[C@]43C)[C@H]12`, for which the Activity in the assay on Rattus norvegicus [1] is listed as 23.5%; with Rattus norvegicus [2], 24%.

As to `Cc1ccc(C)c(C(=O)O[C@H]2CC[C@]3(C)[C@H]4CC=C5[C@@H]6[C@@H](C)[C@H](C)CC[C@]6(C)CC[C@@]5(C)[C@]4(C)CC[C@H]3C2(C)C)c1`, the Activity in the assay on Rattus norvegicus [1] is reported as 20.2%; in the assay on Rattus norvegicus [2], 24.9%.

Turning to `C[C@H]1[C@H](C)CC[C@]2(C)CC[C@]3(C)C(=CC[C@@H]4[C@@]5(C)CC[C@H](OC(=O)c6ccccc6C(=O)O)C(C)(C)[C@@H]5CC[C@]43C)[C@H]12`, the figures for the Activity in the assay on Rattus norvegicus [1] and with Rattus norvegicus [2] were 16.5% and 11%, respectively.

With `C[C@H]1[C@H](C)CC[C@]2(C)CC[C@]3(C)C(=CC[C@@H]4[C@@]5(C)CC[C@H](OC(=O)c6ccc([N+](=O)[O-])cc6)C(C)(C)[C@@H]5CC[C@]43C)[C@H]12`, the Activity with Rattus norvegicus [1] stood at 27.6%; in the assay with Rattus norvegicus [2], 13.8%.

As to `C[C@H]1[C@H](C)CC[C@]2(C)CC[C@]3(C)C(=CC[C@@H]4[C@@]5(C)CC[C@H](OC(=O)CNC(=O)c6ccccc6)C(C)(C)[C@@H]5CC[C@]43C)[C@H]12`, the Activity with Rattus norvegicus [1] turned out to be 12.1%; in the assay on Rattus norvegicus [2], 3.15%.

As to `C[C@H]1[C@H](C)CC[C@]2(C)CC[C@]3(C)C(=CC[C@@H]4[C@@]5(C)CC[C@H](O)C(C)(C)[C@@H]5CC[C@]43C)[C@H]12`, the Activity stood at 8.12% in the assay with Rattus norvegicus [1] and 13.9% in the assay with Rattus norvegicus [2].

Consider `C[C@H]1[C@H](C)CC[C@]2(C)CC[C@]3(C)C(=CC[C@@H]4[C@@]5(C)CC[C@H](OC(=O)c6ccc(Cl)cc6)C(C)(C)[C@@H]5CC[C@]43C)[C@H]12`, for which the Activity is listed as 25.6% in the assay with Rattus norvegicus [1] and 22.1% in the assay with Rattus norvegicus [2].

The values above are taken from ChEMBL document CHEMBL1138575, “Synthesis of alpha-amyrin derivatives and their in vivo antihyperglycemic activity” (2009).
